Where two headings read alike, the source gives them in different places.
How the values were obtained:
Format in all cases: biochemical
[1] = biological target: 320 wild-type protein kinases (Homo sapiens, UniProt P27361); conditions: singlicate
Excerpt: (§1) Table S4. Profiling of two compounds at two concentrations against 320 wild-type protein kinases; singlicate measurement; Residual activities (% of control).

[2] = biological target: 320 wild-type protein kinases (Homo sapiens, UniProt Q9Y5S2); conditions: CDC42BPB, singlicate
Excerpt: as §1

[3] = biological target: 320 wild-type protein kinases (Homo sapiens, UniProt P07948); conditions: LYN, singlicate
Excerpt: as §1

[4] = biological target: 320 wild-type protein kinases (Homo sapiens, UniProt P53779); conditions: singlicate
Excerpt: as §1

[5] = biological target: 320 wild-type protein kinases (Homo sapiens, UniProt Q5TCX8); conditions: singlicate
Excerpt: as §1

[6] = biological target: T1, 320 wild-type protein kinases (Homo sapiens, UniProt P53778); conditions: p38-gamma, singlicate
T1 sequence (P53778 1-367): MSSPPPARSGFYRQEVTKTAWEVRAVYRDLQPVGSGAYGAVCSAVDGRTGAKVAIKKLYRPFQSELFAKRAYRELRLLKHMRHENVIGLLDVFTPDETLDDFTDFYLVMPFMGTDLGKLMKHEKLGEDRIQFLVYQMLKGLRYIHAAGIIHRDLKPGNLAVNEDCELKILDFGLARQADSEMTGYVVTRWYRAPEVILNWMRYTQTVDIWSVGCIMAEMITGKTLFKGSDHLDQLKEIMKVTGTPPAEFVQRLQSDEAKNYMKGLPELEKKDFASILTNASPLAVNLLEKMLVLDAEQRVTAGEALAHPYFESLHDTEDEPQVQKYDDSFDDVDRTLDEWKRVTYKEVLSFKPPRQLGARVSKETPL
Excerpt: as §1

[7] = biological target: 320 wild-type protein kinases (Homo sapiens, UniProt Q00526); conditions: singlicate
Excerpt: as §1

[8] = biological target: 320 wild-type protein kinases (Homo sapiens, UniProt Q00536); conditions: CDK16/CycY, singlicate
Excerpt: as §1

[9] = biological target: 320 wild-type protein kinases (Homo sapiens, UniProt Q8N568); conditions: singlicate
Excerpt: as §1

[10] = biological target: T2, 320 wild-type protein kinases (Homo sapiens, UniProt P42679); conditions: MATK, singlicate
T2 sequence (P42679 1-507): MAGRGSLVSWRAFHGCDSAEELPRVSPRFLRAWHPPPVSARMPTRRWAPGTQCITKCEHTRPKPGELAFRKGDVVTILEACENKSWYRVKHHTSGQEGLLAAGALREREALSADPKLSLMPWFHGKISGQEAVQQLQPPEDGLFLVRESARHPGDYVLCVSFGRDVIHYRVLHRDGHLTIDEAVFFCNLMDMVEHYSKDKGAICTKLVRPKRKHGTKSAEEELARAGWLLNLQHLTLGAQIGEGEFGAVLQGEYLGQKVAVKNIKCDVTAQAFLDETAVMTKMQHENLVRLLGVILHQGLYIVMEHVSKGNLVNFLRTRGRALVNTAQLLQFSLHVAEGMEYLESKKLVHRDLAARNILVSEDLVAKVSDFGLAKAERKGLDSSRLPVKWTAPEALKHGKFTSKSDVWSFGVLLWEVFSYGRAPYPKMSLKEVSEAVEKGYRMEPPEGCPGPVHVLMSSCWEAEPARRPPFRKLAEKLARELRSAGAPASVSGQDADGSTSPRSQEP
Excerpt: as §1

[11] = biological target: 320 wild-type protein kinases (Homo sapiens, UniProt P08922); conditions: kinase ROS, singlicate
Excerpt: as §1

[12] = biological target: 320 wild-type protein kinases (Homo sapiens, UniProt P78368); conditions: singlicate
Excerpt: as §1

[13] = biological target: 320 wild-type protein kinases (Homo sapiens, UniProt P10721); conditions: KIT, singlicate
Excerpt: as §1

[14] = biological target: 320 wild-type protein kinases (Homo sapiens, UniProt Q5TCY1); conditions: kinase TTBK1, singlicate
Excerpt: as §1

[15] = biological target: 320 wild-type protein kinases (Homo sapiens, UniProt P42345); conditions: mTOR, singlicate
Excerpt: as §1

[16] = biological target: 320 wild-type protein kinases (Homo sapiens, UniProt P45984); conditions: singlicate
Excerpt: as §1

Sequence of 320 wild-type protein kinases (Homo sapiens, UniProt P45984) (P45984 whole entry): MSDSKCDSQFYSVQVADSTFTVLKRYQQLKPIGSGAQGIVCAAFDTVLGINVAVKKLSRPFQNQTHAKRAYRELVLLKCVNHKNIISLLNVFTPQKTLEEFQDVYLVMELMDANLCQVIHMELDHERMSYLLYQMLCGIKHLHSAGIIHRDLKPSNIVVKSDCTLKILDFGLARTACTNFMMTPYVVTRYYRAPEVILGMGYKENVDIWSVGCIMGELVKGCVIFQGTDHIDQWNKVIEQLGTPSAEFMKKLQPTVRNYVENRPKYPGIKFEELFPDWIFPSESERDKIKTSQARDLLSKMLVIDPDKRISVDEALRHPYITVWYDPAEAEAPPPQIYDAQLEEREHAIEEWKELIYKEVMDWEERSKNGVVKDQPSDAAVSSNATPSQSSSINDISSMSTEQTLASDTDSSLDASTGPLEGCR
Sequence of 320 wild-type protein kinases (Homo sapiens, UniProt P10721) (P10721 26-976): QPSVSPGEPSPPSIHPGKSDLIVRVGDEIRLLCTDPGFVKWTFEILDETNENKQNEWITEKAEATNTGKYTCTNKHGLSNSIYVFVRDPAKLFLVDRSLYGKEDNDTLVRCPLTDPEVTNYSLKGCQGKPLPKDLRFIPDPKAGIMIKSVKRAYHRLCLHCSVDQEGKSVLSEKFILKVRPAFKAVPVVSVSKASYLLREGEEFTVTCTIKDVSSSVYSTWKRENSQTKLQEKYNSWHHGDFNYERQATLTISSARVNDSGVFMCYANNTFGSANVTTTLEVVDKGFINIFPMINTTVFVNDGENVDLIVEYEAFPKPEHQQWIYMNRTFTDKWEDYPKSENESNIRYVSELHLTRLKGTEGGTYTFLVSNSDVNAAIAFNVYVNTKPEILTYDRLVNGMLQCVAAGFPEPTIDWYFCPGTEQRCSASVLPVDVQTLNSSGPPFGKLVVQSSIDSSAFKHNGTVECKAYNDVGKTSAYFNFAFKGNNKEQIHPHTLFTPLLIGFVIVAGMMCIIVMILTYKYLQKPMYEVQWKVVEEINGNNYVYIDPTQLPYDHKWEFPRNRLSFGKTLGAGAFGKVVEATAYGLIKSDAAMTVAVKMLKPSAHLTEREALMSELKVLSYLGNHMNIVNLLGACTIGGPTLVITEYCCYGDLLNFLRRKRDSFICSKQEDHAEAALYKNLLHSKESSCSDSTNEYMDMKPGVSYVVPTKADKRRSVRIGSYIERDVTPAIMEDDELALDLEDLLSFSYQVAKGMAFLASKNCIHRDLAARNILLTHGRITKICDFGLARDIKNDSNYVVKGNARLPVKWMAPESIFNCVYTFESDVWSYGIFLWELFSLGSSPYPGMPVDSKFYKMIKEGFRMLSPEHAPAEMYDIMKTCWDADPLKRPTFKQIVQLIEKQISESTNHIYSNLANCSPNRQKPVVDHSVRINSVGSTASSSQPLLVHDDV
Sequence of 320 wild-type protein kinases (Homo sapiens, UniProt Q5TCX8) (Q5TCX8 whole entry): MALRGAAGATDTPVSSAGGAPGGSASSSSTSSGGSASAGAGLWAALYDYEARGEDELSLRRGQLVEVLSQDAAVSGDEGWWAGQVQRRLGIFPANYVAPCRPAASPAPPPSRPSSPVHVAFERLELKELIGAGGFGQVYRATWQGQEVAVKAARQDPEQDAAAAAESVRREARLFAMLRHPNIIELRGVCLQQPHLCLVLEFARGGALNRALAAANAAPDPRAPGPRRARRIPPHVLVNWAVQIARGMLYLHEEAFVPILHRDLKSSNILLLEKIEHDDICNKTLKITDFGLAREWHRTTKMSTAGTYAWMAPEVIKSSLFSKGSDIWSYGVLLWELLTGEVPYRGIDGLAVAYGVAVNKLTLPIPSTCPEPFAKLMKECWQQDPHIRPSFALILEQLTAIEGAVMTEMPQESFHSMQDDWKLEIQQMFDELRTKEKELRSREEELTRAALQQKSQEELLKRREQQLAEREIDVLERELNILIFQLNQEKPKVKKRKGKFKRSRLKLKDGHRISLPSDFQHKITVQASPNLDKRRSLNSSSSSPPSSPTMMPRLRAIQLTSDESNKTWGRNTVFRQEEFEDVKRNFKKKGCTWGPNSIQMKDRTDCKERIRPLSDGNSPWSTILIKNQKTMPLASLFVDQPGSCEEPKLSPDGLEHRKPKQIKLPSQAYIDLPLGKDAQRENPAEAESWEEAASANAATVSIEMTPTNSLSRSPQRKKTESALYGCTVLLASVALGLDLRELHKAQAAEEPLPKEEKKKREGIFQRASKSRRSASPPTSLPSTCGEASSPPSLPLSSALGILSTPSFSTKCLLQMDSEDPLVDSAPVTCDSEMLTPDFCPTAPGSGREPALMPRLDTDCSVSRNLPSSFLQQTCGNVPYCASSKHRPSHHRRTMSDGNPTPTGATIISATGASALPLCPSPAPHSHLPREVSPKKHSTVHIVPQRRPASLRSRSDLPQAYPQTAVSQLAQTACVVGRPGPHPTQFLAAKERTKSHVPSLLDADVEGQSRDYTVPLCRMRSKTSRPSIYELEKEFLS
Sequence of 320 wild-type protein kinases (Homo sapiens, UniProt P78368) (P78368 whole entry): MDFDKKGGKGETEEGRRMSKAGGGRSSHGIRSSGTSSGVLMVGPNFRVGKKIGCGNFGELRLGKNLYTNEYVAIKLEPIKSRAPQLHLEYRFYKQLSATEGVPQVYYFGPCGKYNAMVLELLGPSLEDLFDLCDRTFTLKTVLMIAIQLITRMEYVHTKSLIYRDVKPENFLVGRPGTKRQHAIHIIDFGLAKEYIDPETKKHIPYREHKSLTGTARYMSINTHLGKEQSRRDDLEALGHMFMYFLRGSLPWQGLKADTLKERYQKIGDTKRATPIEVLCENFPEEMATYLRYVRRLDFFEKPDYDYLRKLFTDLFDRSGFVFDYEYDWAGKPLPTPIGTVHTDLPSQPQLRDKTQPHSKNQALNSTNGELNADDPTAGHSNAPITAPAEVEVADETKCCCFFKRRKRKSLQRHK
Sequence of 320 wild-type protein kinases (Homo sapiens, UniProt Q8N568) (Q8N568 whole entry): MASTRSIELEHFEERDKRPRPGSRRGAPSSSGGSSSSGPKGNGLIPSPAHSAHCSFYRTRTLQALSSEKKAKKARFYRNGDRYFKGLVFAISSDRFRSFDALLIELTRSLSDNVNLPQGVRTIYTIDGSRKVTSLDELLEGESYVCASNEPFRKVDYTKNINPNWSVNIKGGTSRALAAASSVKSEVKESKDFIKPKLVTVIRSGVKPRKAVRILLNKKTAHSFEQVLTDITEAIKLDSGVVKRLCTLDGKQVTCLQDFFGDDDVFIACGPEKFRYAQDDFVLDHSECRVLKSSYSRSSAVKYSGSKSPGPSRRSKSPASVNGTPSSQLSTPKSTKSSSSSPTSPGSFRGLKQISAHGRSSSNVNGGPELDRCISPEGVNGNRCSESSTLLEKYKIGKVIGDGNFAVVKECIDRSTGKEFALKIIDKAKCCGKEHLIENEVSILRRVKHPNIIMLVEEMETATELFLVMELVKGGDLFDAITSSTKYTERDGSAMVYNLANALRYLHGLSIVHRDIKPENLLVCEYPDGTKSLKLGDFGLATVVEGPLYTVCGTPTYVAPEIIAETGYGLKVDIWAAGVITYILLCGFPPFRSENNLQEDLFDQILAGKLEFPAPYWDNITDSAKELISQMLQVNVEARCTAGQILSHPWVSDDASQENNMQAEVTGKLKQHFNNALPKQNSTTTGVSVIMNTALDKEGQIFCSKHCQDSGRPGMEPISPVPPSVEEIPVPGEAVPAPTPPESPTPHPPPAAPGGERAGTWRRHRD
Sequence of 320 wild-type protein kinases (Homo sapiens, UniProt P27361) (P27361 whole entry): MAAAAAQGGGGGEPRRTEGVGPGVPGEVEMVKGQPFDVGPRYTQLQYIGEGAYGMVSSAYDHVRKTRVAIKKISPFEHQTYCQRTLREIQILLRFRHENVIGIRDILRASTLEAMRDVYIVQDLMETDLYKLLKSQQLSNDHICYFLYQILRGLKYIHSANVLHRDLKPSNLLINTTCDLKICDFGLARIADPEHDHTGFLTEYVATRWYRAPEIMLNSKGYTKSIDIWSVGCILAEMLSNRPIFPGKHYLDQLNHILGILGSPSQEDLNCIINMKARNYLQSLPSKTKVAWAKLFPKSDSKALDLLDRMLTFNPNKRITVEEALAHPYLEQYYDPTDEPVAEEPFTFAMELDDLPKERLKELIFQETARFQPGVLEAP
Sequence of 320 wild-type protein kinases (Homo sapiens, UniProt P53779) (P53779 whole entry): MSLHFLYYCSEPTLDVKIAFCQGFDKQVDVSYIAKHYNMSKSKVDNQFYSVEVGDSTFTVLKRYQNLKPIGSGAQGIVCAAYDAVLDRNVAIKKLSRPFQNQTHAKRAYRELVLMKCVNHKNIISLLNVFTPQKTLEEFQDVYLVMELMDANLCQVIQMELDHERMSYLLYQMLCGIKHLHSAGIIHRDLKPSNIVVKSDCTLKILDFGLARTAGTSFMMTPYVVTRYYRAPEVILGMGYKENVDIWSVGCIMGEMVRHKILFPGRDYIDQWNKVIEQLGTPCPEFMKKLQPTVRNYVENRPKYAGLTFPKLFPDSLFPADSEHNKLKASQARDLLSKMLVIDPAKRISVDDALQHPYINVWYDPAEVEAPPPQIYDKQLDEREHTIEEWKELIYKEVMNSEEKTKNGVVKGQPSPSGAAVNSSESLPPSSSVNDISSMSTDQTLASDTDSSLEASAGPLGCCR
Sequence of 320 wild-type protein kinases (Homo sapiens, UniProt Q00536) (Q00536 whole entry): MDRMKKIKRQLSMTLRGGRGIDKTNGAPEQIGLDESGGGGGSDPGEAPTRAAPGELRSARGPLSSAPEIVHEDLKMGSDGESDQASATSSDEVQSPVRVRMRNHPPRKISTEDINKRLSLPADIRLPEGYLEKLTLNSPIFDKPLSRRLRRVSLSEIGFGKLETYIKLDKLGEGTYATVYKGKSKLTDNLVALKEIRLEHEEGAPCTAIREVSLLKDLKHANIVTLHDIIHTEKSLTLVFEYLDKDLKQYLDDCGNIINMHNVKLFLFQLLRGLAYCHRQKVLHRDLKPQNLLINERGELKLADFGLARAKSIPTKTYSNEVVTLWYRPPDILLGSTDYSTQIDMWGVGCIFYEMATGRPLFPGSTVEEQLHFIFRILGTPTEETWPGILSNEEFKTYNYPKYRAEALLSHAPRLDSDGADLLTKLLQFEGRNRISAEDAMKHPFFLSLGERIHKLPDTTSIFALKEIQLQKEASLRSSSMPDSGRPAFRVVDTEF

SMILES | Residual activity ([1]; ERK1, 1.0E-06 M) | Residual activity ([1]; ERK1, 1.0E-07 M) | Residual activity ([2]; 1.0E-06 M) | Residual activity ([2]; 1.0E-07 M) | Residual activity ([3]; 1.0E-06 M) | Residual activity ([3]; 1.0E-07 M) | Residual activity ([4]; JNK3, 1.0E-06 M) | Residual activity ([4]; JNK3, 1.0E-07 M) | Residual activity ([5]; MLK4, 1.0E-06 M) | Residual activity ([5]; MLK4, 1.0E-07 M) | Residual activity ([6]; 1.0E-06 M) | Residual activity ([6]; 1.0E-07 M) | Residual activity ([7]; CDK3/CycC, 1.0E-06 M) | Residual activity ([7]; CDK3/CycC, 1.0E-07 M) | Residual activity ([7]; CDK3/CycE1, 1.0E-06 M) | Residual activity ([7]; CDK3/CycE1, 1.0E-07 M) | Residual activity ([8]; 1.0E-06 M) | Residual activity ([8]; 1.0E-07 M) | Residual activity ([9]; DCAMKL2, 1.0E-06 M) | Residual activity ([9]; DCAMKL2, 1.0E-07 M) | other results
C#Cc1cc(Nc2ncnc3cc(I)ccc23)ccc1Cl [Compound 41] | 97 % of control | 91 % of control | 98 % of control | 101 % of control | 89 % of control | 103 % of control | 99 % of control | 90 % of control | 85 % of control | 79 % of control | 78 % of control | 87 % of control | 87 % of control | 90 % of control | 96 % of control | 115 % of control | 84 % of control | 84 % of control | 90 % of control | 87 % of control | Residual activity ([10]; 1.0E-06 M): 95 % of control; Residual activity ([10]; 1.0E-07 M): 100 % of control; Residual activity, ROS ([11]; assay conc. 1.0E-06 M): 88 % of control; Residual activity, ROS ([11]; assay conc. 1.0E-07 M): 95 % of control; Residual activity ([12]; CK1-gamma2, 1.0E-06 M): 112 % of control; Residual activity ([12]; CK1-gamma2, 1.0E-07 M): 119 % of control; Residual activity ([13]; 1.0E-06 M): 121 % of control; Residual activity ([13]; 1.0E-07 M): 128 % of control; Residual activity, TTBK1 ([14]; assay conc. 1.0E-06 M): 102 % of control; Residual activity, TTBK1 ([14]; assay conc. 1.0E-07 M): 113 % of control; Residual activity ([15]; 1.0E-06 M): 84 % of control; Residual activity ([15]; 1.0E-07 M): 97 % of control; Residual activity ([16]; JNK2, 1.0E-06 M): 116 % of control; Residual activity ([16]; JNK2, 1.0E-07 M): 110 % of control
C#Cc1cc(Nc2ncnc3cc(OC)c(OC)cc23)ccc1Cl [Compound 45] | 95 % of control | 92 % of control | 95 % of control | 98 % of control | 62 % of control | 94 % of control | 89 % of control | 92 % of control | 83 % of control | 85 % of control | 85 % of control | 90 % of control | 86 % of control | 92 % of control | 102 % of control | 117 % of control | 90 % of control | 86 % of control | 103 % of control | 97 % of control | Residual activity ([10]; 1.0E-06 M): 95 % of control; Residual activity ([10]; 1.0E-07 M): 108 % of control; Residual activity, ROS ([11]; assay conc. 1.0E-06 M): 89 % of control; Residual activity, ROS ([11]; assay conc. 1.0E-07 M): 96 % of control; Residual activity ([12]; CK1-gamma2, 1.0E-06 M): 109 % of control; Residual activity ([12]; CK1-gamma2, 1.0E-07 M): 111 % of control; Residual activity ([13]; 1.0E-06 M): 105 % of control; Residual activity ([13]; 1.0E-07 M): 124 % of control; Residual activity, TTBK1 ([14]; assay conc. 1.0E-06 M): 101 % of control; Residual activity, TTBK1 ([14]; assay conc. 1.0E-07 M): 109 % of control; Residual activity ([15]; 1.0E-06 M): 91 % of control; Residual activity ([15]; 1.0E-07 M): 106 % of control; Residual activity ([16]; JNK2, 1.0E-06 M): 120 % of control; Residual activity ([16]; JNK2, 1.0E-07 M): 115 % of control
